In the supplement of paper PMC4862054:

Columns and labels:
Conditions in all cases: incubation time: 72 h
[1] = test system: BT-474; experiment: normalised viability (% of control), CellTiter-Blue; higher = more viable cells (about 100 = DMSO control)
Method: (§1)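 DSRT, CellTiter-Blue viability, 72 h incubation. Signal is normalised to DMSO and benzethonium chloride controls. Value is the normalised response at dose 3.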

[2] = test system: BT-549; experiment: as above
Method: as §1

[3] = test system: CAL-120; experiment: as above
Method: as §1

[4] = test system: CAL-148; experiment: as above
Method: as §1

[5] = test system: CAL-51; experiment: as above
Method: as §1

[6] = test system: CAL-85-1; experiment: as above
Method: as §1

[7] = test system: DU-4475; experiment: as above
Method: as §1

[8] = test system: HCC1143; experiment: as above
Method: as §1

[9] = test system: HCC1599; experiment: as above
Method: as §1

[10] = test system: HCC1937; experiment: as above
Method: as §1

[11] = test system: HDQ-P1; experiment: as above
Method: as §1

[12] = test system: Hs578T; experiment: as above
Method: as §1

[13] = test system: MDA-MB-231; experiment: as above
Method: as §1

[14] = test system: MDA-MB-436; experiment: as above
Method: as §1

[15] = test system: MDA-MB-453; experiment: as above
Method: as §1

[16] = test system: MFM-223; experiment: as above
Method: as §1

[17] = test system: SK-BR-3; experiment: as above
Method: as §1

[18] = test system: BT-474; experiment: normalised response (% of control), CellTiter-Glo; higher = more viable cells (100 = DMSO, 0 = benzethonium chloride kill control)
Outline: (§2)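 Values are normalised signals, each belonging to one concentration of the series. Breast cancer cells (20 µl suspension) were seeded into 384-well plates with compound at 5 concentrations in 10-fold steps over a compound-specific 10,000-fold range and incubated 72 h. Readouts were CellTox Green fluorescence (485/520 nm), then CellTiter-Glo luminescence after 10 min at room temperature, with each plate set to 0.1 % DMSO as 100 and a positive kill control as 0.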

[19] = test system: BT-549; experiment: as above
Outline: as §2

[20] = test system: CAL-120; experiment: as above
Outline: as §2

[21] = test system: CAL-51; experiment: as above
Outline: as §2

[22] = test system: CAL-85-1; experiment: as above
Outline: as §2

[23] = test system: DU-4475; experiment: as above
Outline: as §2

[24] = test system: HCC1143; experiment: as above
Outline: as §2

[25] = test system: HCC1599; experiment: as above
Outline: as §2

[26] = test system: HCC1937; experiment: as above
Outline: as §2

[27] = test system: HDQ-P1; experiment: as above
Outline: as §2

[28] = test system: Hs578T; experiment: as above
Outline: as §2

[29] = test system: MCF-10A; experiment: as above
Outline: as §2

[30] = test system: MDA-MB-231; experiment: as above
Outline: as §2

[31] = test system: SK-BR-3; experiment: as above
Outline: as §2

| Compound | normalised viability ([1]; 100 nM) [%] | normalised viability ([2]; 100 nM) [%] | normalised viability ([3]; 100 nM) [%] | normalised viability ([4]; 10 nM) [%] | normalised viability ([5]; 10 nM) [%] | normalised viability ([6]; 10 nM) [%] | normalised response [18] [%] | normalised response [19] [%] | normalised response [20] [%] | normalised response [21] [%] | normalised response [22] [%] | normalised response [23] [%] | normalised response [24] [%] | normalised response [25] [%] | normalised response [26] [%] | normalised response [27] [%] | normalised response [28] [%] | normalised response [29] [%] | normalised response [30] [%] | normalised response [31] [%] | other results |
| --- | --- | --- | --- | --- | --- | --- | --- | --- | --- | --- | --- | --- | --- | --- | --- | --- | --- | --- | --- | --- | --- |
| COc1cccc2cc(-c3nc([C@H]4CC[C@H](C(=O)O)CC4)n4ncnc(N)c34)[nH]c12 [OSI-027] | 95.1 | 71.9 | 91.9 | 92.6 | 95.4 | 92.8 | – | – | – | – | – | – | – | – | – | – | – | – | – | – | normalised viability ([7]; 10 nM): 105%; normalised viability ([8]; 100 nM): 119%; normalised viability ([9]; 100 nM): 88.9%; normalised viability ([10]; 100 nM): 84%; normalised viability ([11]; 10 nM): 78.5%; normalised viability ([12]; 100 nM): 84.1%; normalised viability ([13]; 100 nM): 72.1%; normalised viability ([14]; 100 nM): 74.1%; normalised viability ([15]; 10 nM): 80.9%; normalised viability ([16]; 100 nM): 73.7%; normalised viability ([17]; 100 nM): 48.6% |
| COc1cccc2c1C(=O)c1c(O)c3c(c(O)c1C2=O)C[C@@](O)(C(=O)CO)C[C@@H]3O[C@H]1C[C@H](N)[C@H](O)[C@H](C)O1 [Doxorubicin] | – | – | – | – | – | – | – | – | – | – | – | – | – | – | – | – | – | – | – | – | normalised viability ([1]; 10 nM): 95.5%; normalised viability ([2]; 10 nM): 98.9%; normalised viability ([3]; 10 nM): 84.6%; normalised viability ([4]; 1 nM): 96.6%; normalised viability ([5]; 1 nM): 105%; normalised viability ([6]; 1 nM): 95.7%; normalised viability ([7]; 1 nM): 103%; normalised viability ([8]; 10 nM): 83.4%; normalised viability ([9]; 10 nM): 102%; normalised viability ([10]; 10 nM): 98.9%; normalised viability ([11]; 1 nM): 108%; normalised viability ([12]; 10 nM): 99.5%; normalised viability ([13]; 10 nM): 78.6%; normalised viability ([14]; 10 nM): 92.4%; normalised viability ([15]; 1 nM): 99.1%; normalised viability ([16]; 10 nM): 89.4%; normalised viability ([17]; 10 nM): 75.6% |
| CN1CC[C@H](c2c(O)cc(O)c3c(=O)cc(-c4ccccc4Cl)oc23)[C@H](O)C1 [Alvocidib] | 96.4 | 95.6 | 68.2 | 85.4 | 103 | 93.8 | – | – | – | – | – | – | – | – | – | – | – | – | – | – | normalised viability ([7]; 10 nM): 93%; normalised viability ([8]; 100 nM): 69.7%; normalised viability ([9]; 100 nM): 82.4%; normalised viability ([10]; 100 nM): 69.4%; normalised viability ([11]; 10 nM): 106%; normalised viability ([12]; 100 nM): 51.5%; normalised viability ([13]; 100 nM): 82.9%; normalised viability ([14]; 100 nM): 99.7%; normalised viability ([15]; 10 nM): 98.1%; normalised viability ([16]; 100 nM): 76.3%; normalised viability ([17]; 100 nM): 46.9% |
| Nc1ccn([C@@H]2O[C@H](CO)[C@@H](O)[C@@H]2O)c(=O)n1 [Cytarabine] | 101 | 67.9 | 82.4 | 86.6 | 94.4 | 110 | – | – | – | – | – | – | – | – | – | – | – | – | – | – | normalised viability ([7]; 10 nM): 137%; normalised viability ([8]; 100 nM): 86%; normalised viability ([9]; 100 nM): 110%; normalised viability ([10]; 100 nM): 76.3%; normalised viability ([11]; 10 nM): 94.6%; normalised viability ([12]; 100 nM): 65.1%; normalised viability ([13]; 100 nM): 86.3%; normalised viability ([14]; 100 nM): 91.9%; normalised viability ([15]; 10 nM): 109%; normalised viability ([16]; 100 nM): 103%; normalised viability ([17]; 100 nM): 81.2% |
| COc1cccc2c1C(=O)c1c(O)c3c(c(O)c1C2=O)C[C@@](O)(C(=O)CO)C[C@@H]3O[C@H]1C[C@H](N)[C@H](O)[C@H](C)O1 [Doxorubicin] (100 nM) | – | – | – | – | – | – | 82.9 | 78.3 | 98.6 | 39 | 103 | 80.7 | 105 | 115 | 107 | 98.7 | 98.7 | 106 | 95.9 | 92.2 | – |
| CS(=O)(=O)c1ccc(C(=O)Nc2ccc(Cl)c(-c3ccccn3)c2)c(Cl)c1 [Vismodegib] (1000 nM) | – | – | – | – | – | – | 90.3 | 101 | 90.9 | 105 | 103 | 98.9 | 89.2 | 118 | 95.5 | 98.4 | 101 | 94.9 | 95.9 | 86.5 | – |
| C[C@]1(c2nc3c(C(N)=O)cccc3[nH]2)CCCN1 [Veliparib] (1000 nM) | – | – | – | – | – | – | 93.8 | 103 | 97 | 72.6 | 115 | 98.6 | 105 | 104 | 101 | 102 | 105 | 91.3 | 103 | 101 | – |
| C=CCNC1=C2C[C@@H](C)C[C@H](OC)[C@H](O)[C@@H](C)/C=C(\C)[C@H](OC(N)=O)[C@@H](OC)/C=C\C=C(/C)C(=O)NC(=CC1=O)C2=O [Tanespimycin] (1000 nM) | – | – | – | – | – | – | 21.1 | 33.4 | 51.8 | 26 | 27.9 | 0.04 | 36 | 57.8 | 29 | 22.8 | 38.2 | 14.6 | 23.5 | 38.5 | – |
